Measured values reported in PMC7523345 (Investigational new drugs, 2018).
Entries after “also recorded” stand apart in the source; their conditions may differ.

Test: Phase I dose escalation study: safety, tolerability, DLT and MTD
Type: in vivo

Cc1cccc2c1NC(=O)[C@@H](NC(=O)[C@H](CCC(F)(F)F)[C@H](CCC(F)(F)F)C(N)=O)N=C2c1cccc(F)c1 [BMS-986115]
Hypokalaemia (drug related AE, Grade 3 and 4) (Arm B BIW 4 mg (N = 2)): 0 n (%) | Hypokalaemia (drug related AE, all grades) (Arm B BIW 4 mg (N = 2)): 1 (50) n (%) | Hyponatraemia (drug related AE, Grade 3 and 4) (Arm B BIW 4 mg (N = 2)): 0 n (%) | Hyponatraemia (drug related AE, all grades) (Arm B BIW 4 mg (N = 2)): 0 n (%) | Hypophosphataemia (drug related AE, Grade 3 and 4) (Arm B BIW 4 mg (N = 2)): 1 (50) n (%) | Hypophosphataemia (drug related AE, all grades) (Arm B BIW 4 mg (N = 2)): 1 (50) n (%) | Ileus (drug related AE, Grade 3 and 4) (Arm B BIW 4 mg (N = 2)): 0 n (%) | Increased upper airway secretion (drug related AE, all grades) (Arm B BIW 4 mg (N = 2)): 1 (50) n (%) | Laryngeal pain (drug related AE, all grades) (Arm B BIW 4 mg (N = 2)): 0 n (%) | Leucocytosis (drug related AE, Grade 3 and 4) (Arm B BIW 4 mg (N = 2)): 0 n (%) | Mouth ulceration (drug related AE, all grades) (Arm B BIW 4 mg (N = 2)): 0 n (%) | Nausea (drug related AE, Grade 3 and 4) (Arm B BIW 4 mg (N = 2)): 0 n (%) | Nausea (drug related AE, all grades) (Arm B BIW 4 mg (N = 2)): 0 n (%) | Pruritus (drug related AE, Grade 3 and 4) (Arm B BIW 4 mg (N = 2)): 0 n (%) | Pruritus (drug related AE, all grades) (Arm B BIW 4 mg (N = 2)): 1 (50) n (%) | Pulmonary embolism (drug related AE, Grade 3 and 4) (Arm B BIW 4 mg (N = 2)): 0 n (%) | Rash (drug related AE, all grades) (Arm B BIW 4 mg (N = 2)): 0 n (%) | Rash maculopapular (drug related AE, all grades) (Arm B BIW 4 mg (N = 2)): 1 (50) n (%) | Sinusitis (drug related AE, all grades) (Arm B BIW 4 mg (N = 2)): 0 n (%) | Urticaria (drug related AE, Grade 3 and 4) (Arm B BIW 4 mg (N = 2)): 0 n (%) | Vision blurred (drug related AE, all grades) (Arm B BIW 4 mg (N = 2)): 0 n (%) | Vomiting (drug related AE, Grade 3 and 4) (Arm B BIW 4 mg (N = 2)): 0 n (%) | Vomiting (drug related AE, all grades) (Arm B BIW 4 mg (N = 2)): 0 n (%) | Weight decreased (drug related AE, all grades) (Arm B BIW 4 mg (N = 2)): 0 n (%) | Description of DLT (Arm B BIW 8 mg): Gr 3 diarrhoea; Gr 3 nausea/dehydration/anorexia with Gr 2 fatigue; also recorded: G3 diarrhoea; also recorded: G3 nausea/dehydration/anorexia | Description of study drug toxicity that led to treatment discontinuation (Arm B BIW 8 mg): G3 Diarrhoea (N = 1); also recorded: G3 Dehydration and anorexia (N = 1) | Abdominal distension (drug related AE, all grades) (Arm B BIW 8 mg (N = 8)): 0 n (%) | Abdominal pain (drug related AE, Grade 3 and 4) (Arm B BIW 8 mg (N = 8)): 0 n (%) | Abdominal pain (drug related AE, all grades) (Arm B BIW 8 mg (N = 8)): 0 n (%) | Blood creatinine increased (drug related AE, all grades) (Arm B BIW 8 mg (N = 8)): 1 (13) n (%) | Colitis (drug related AE, Grade 3 and 4) (Arm B BIW 8 mg (N = 8)): 0 n (%) | Cough (drug related AE, Grade 3 and 4) (Arm B BIW 8 mg (N = 8)): 0 n (%) | Cough (drug related AE, all grades) (Arm B BIW 8 mg (N = 8)): 1 (13) n (%) | Decreased Appetite (drug related AE, Grade 3 and 4) (Arm B BIW 8 mg (N = 8)): 1 (13) n (%) | Decreased Appetite (drug related AE, all grades) (Arm B BIW 8 mg (N = 8)): 5 (63) n (%) | Dehydration (drug related AE, Grade 3 and 4) (Arm B BIW 8 mg (N = 8)): 1 (13) n (%) | Dehydration (drug related AE, all grades) (Arm B BIW 8 mg (N = 8)): 2 (25) n (%) | Dermatitis acneiform (drug related AE, all grades) (Arm B BIW 8 mg (N = 8)): 0 n (%) | Diarrhoea (drug related AE, Grade 3 and 4) (Arm B BIW 8 mg (N = 8)): 2 (25) n (%) | Diarrhoea (drug related AE, all grades) (Arm B BIW 8 mg (N = 8)): 7 (88) n (%) | Dry mouth (drug related AE, all grades) (Arm B BIW 8 mg (N = 8)): 1 (13) n (%) | Dry skin (drug related AE, all grades) (Arm B BIW 8 mg (N = 8)): 2 (25) n (%) | Dysgeusia (drug related AE, all grades) (Arm B BIW 8 mg (N = 8)): 1 (13) n (%) | Dyspepsia (drug related AE, all grades) (Arm B BIW 8 mg (N = 8)): 0 n (%) | Dysphonia (drug related AE, all grades) (Arm B BIW 8 mg (N = 8)): 1 (13) n (%) | Fatigue (drug related AE, Grade 3 and 4) (Arm B BIW 8 mg (N = 8)): 0 n (%) | Fatigue (drug related AE, all grades) (Arm B BIW 8 mg (N = 8)): 4 (50) n (%) | Flatulence (drug related AE, all grades) (Arm B BIW 8 mg (N = 8)): 2 (25) n (%) | Hypocalcaemia (drug related AE, Grade 3 and 4) (Arm B BIW 8 mg (N = 8)): 1 (13) n (%) | Hypocalcaemia (drug related AE, all grades) (Arm B BIW 8 mg (N = 8)): 1 (13) n (%) | Hypokalaemia (drug related AE, Grade 3 and 4) (Arm B BIW 8 mg (N = 8)): 0 n (%) | Hypokalaemia (drug related AE, all grades) (Arm B BIW 8 mg (N = 8)): 2 (25) n (%) | Hyponatraemia (drug related AE, Grade 3 and 4) (Arm B BIW 8 mg (N = 8)): 1 (13) n (%) | Hyponatraemia (drug related AE, all grades) (Arm B BIW 8 mg (N = 8)): 1 (13) n (%) | Hypophosphataemia (drug related AE, Grade 3 and 4) (Arm B BIW 8 mg (N = 8)): 4 (50) n (%) | Hypophosphataemia (drug related AE, all grades) (Arm B BIW 8 mg (N = 8)): 5 (63) n (%) | Ileus (drug related AE, Grade 3 and 4) (Arm B BIW 8 mg (N = 8)): 0 n (%) | Increased upper airway secretion (drug related AE, all grades) (Arm B BIW 8 mg (N = 8)): 2 (25) n (%) | Laryngeal pain (drug related AE, all grades) (Arm B BIW 8 mg (N = 8)): 0 n (%) | Leucocytosis (drug related AE, Grade 3 and 4) (Arm B BIW 8 mg (N = 8)): 1 (13) n (%) | Mouth ulceration (drug related AE, all grades) (Arm B BIW 8 mg (N = 8)): 1 (13) n (%) | Nausea (drug related AE, Grade 3 and 4) (Arm B BIW 8 mg (N = 8)): 1 (13) n (%) | Nausea (drug related AE, all grades) (Arm B BIW 8 mg (N = 8)): 6 (75) n (%) | Pruritus (drug related AE, Grade 3 and 4) (Arm B BIW 8 mg (N = 8)): 0 n (%) | Pruritus (drug related AE, all grades) (Arm B BIW 8 mg (N = 8)): 2 (25) n (%) | Pulmonary embolism (drug related AE, Grade 3 and 4) (Arm B BIW 8 mg (N = 8)): 0 n (%) | Rash (drug related AE, all grades) (Arm B BIW 8 mg (N = 8)): 3 (38) n (%) | Rash maculopapular (drug related AE, all grades) (Arm B BIW 8 mg (N = 8)): 2 (25) n (%) | Sinusitis (drug related AE, all grades) (Arm B BIW 8 mg (N = 8)): 0 n (%) | Urticaria (drug related AE, Grade 3 and 4) (Arm B BIW 8 mg (N = 8)): 0 n (%)
